From patent US4198508A, “Process for preparing 4-substituted imidazo[1,2-a]quinoxalines” (Westwood Pharmaceuticals Inc., priority 1977, dated 1980)

Legend:
[1] = test system: Trichophyton mentagrophytes; test: antifungal activity, agar dilution method; type: cell-based, Trichophyton mentagrophytes (ATCC No. 8757 and 9129)
Method: (§1) Various compounds of this invention display antifungal and anti-yeast activity.
(§2) In Table IX below are listed the antifungal activity of a number of compounds encompassed in the present invention. These were determined by the agar dilution method as described in Chapters 2 and 3 of Methods in Microbiology, Vol. 7B, edited by J. R. Norris and D. W. Ribbons, Academic Press, New York, 1972.

[2] = test system: humeral or antibody response; test: hemolysin test in mice; type: in vivo, mouse; details: s.c., dose to reduce antibody activity by 50% versus control
[3] = test system: cell-mediated immune response to the antigen, Mycobacterium tuberculosis H37Ra; test: delayed hypersensitivity test; type: in vivo, mouse; details: mice, s.c.; dose to reduce edema of cell-mediated immune response by 60% versus control
Method: The immunosuppressant activities of the compounds of this invention were determined via the hemolysin test in mice and by the delayed hypersensitivity test. The hemolysin test used is that described in Methods in Immunology, edited by D. H. Campbell et al, W. A. Benjamin, New York 1963 pages 172-175, and measures humeral or antibody response. The delayed hypersensitivity test measures the effect of a test compound on the ability of a subject mouse to mount a cell-mediated immune response to the antigen, Mycobacterium tuberculosis H37Ra. The mouse is sensitized to the antigen by subcutaneous administration in the base of the tail. The development of the delayed hypersensitivity response may be measured at any time beginning six days after sensitization but is usually done on the ninth day as follows: The right hind paw is injected with purified protein derivative (tuberculin) while the left hind paw (control) receives physiological saline. Both paw volumes are measured after twenty-four hours and significant increase in the volume of the right hand paw is taken as a measure of an effective delayed hypersensitivity response. All compounds were administered by the subcutaneous route.
The D.H.S. (ED60) mg./kg. s.c. value appearing in column 3 is an expression of the effectiveness of the drug in reducing the edema that accompanies the cell-mediated immune response. […]

rat paw edema = rat paw edema assay, oral dosing; type: in vivo; details: four hours after drug
Method: The anti-inflammatory activity of representative compounds of this invention was determined by the rat paw edema assay both by local administration (Table XI below) and by oral dosing (Table XII below). For the oral dosing, the procedure of C. A. Winter, E. A. Risley and G. W. Nuss, Proc. Soc. Exp. Biol. Med. 111, 544 (1962) was employed with measurement taken four hours after the drug was administered. The local administration tests were carried out similarly except the irritant (carrageenan) and the test compound were injected simultaneously at time zero. Tables XI and XII report the anti-inflammatory activity of the compounds tested as % difference in the edema or swelling as compared with the control. These Tables also give the response in many instances of more than one dose level of the same drug.

Trichophyton rubrum = test: antifungal activity, agar dilution method; type: cell-based, Trichophyton rubrum (ATCC No. 10218 and 14001)
Method: as §1, §2

Trichophyton ajelloi = test: antifungal activity, agar dilution method; type: cell-based
Method: as §1, §2

| Structure (SMILES) | Parts Per Million Inhibitions of T. mentagrophytes [1] [Parts Per Million] | HL(ED50) [2] [mg/kg] | D.H.S. (ED60) [3] [mg/kg] | %Difference from Control (rat paw edema; 100 mg/kg) [%] | %Difference from Control (rat paw edema; 400 mg/kg) [%] | Parts Per Million Inhibitions of T. rubrum (Trichophyton rubrum) [Parts Per Million] | Parts Per Million Inhibitions of T. ajelloi (Trichophyton ajelloi) [Parts Per Million] |
| --- | --- | --- | --- | --- | --- | --- | --- |
| FC(F)(F)c1cccc(-c2nc3ccccc3n3ccnc23)c1 [Compound 136] | 100 | 2.7 | > 50 | -9 | -25 | – | – |
| O=[N+]([O-])c1ccc(Nc2nc3ccccc3n3ccnc23)cc1 [Compound 189] | – | – | – | – | – | 100 | 100 |
